Laboratory results from ChEMBL document CHEMBL1128080, “Structural Factors affecting the kinetics of O,N-acyl transfer in potential O-peptide prodrugs” (Bioorg Med Chem Lett, 1995).

Assay: Half-life for the conversion of compound to the corresponding N-peptide under pseudo physiological conditions (0.04 M phosphate, pH 7.4 and 37 degree C)
Format: ADME
Settings: phosphate buffer

Row | half-life [h] | SMILES
1 | 1.58 | CCC(NC(=O)C(NC)C(OC(=O)C(NC(=O)OCc1ccccc1)C(C)C)C(C)C)C(=O)NCCc1ccc(OC)c(OC)c1 (stereo not drawn)
2 | 6.17 | CNC1C(=O)NCCCCN(C)C(C(C)C)C(=O)OC1C(C)C (stereo not drawn)
3 | 0.0667 | CCC(NC(=O)C(N)C(OC(=O)C(NC(=O)OCc1ccccc1)C(C)C)C(C)C)C(=O)NCCc1ccc(OC)c(OC)c1 (stereo not drawn)
